Consider 2 compounds from US20190084939A1, “ANALOGS OF FEXARAMINE AND METHODS OF MAKING AND USING” (Salk Institute for Biological Studies, priority 2014, published 2019).

The subject of one assay is human L cells. The assay is described as follows: oxygen consumption rate of intestinal L cells (Seahorse analyzer). The format is cell-based. The conditions noted are these: fexaramine 1 μM for 24 hours. Here is the method:
FIG. 41 is a graph showing the effects of modulating FXR activity on the oxidative metabolism of intestinal L cells. L cells were treated with the FXR agonist fexaramine, the FXR antagonist Guggulsterone, or a combination of both, prior to measurement of their oxygen consumption rate (OCR) in a Seahorse analyzer.
To examine the effects of FXR in the secretion of GLP-1, the metabolic changes induced in human L cells was measured by treatment with the FXR agonist, fexaramine and an FXR antagonist guggulsterone. Treatment of L cells with fexaramine (1 μM for 24 hours) lead to an increase in the oxygen consumption rate (OCR), consistent with increased mitochondrial activity and consequently, an increased energetic state (FIG. 41). The reverse effect was seen after treatment with the FXR antagonist, guggulsterone, with lower OCR after drug treatment.

A further assay has as its target T1, Human FXR full length (Homo sapiens, UniProt Q96RI1).
T1 construct: Human FXR full length and RXR full length was obtained from Ronald Evans' laboratory; expressed in transfected cells; host or cells: CV-1 cells
T1 sequence (Q96RI1 1-476 isoform Q96RI1-1): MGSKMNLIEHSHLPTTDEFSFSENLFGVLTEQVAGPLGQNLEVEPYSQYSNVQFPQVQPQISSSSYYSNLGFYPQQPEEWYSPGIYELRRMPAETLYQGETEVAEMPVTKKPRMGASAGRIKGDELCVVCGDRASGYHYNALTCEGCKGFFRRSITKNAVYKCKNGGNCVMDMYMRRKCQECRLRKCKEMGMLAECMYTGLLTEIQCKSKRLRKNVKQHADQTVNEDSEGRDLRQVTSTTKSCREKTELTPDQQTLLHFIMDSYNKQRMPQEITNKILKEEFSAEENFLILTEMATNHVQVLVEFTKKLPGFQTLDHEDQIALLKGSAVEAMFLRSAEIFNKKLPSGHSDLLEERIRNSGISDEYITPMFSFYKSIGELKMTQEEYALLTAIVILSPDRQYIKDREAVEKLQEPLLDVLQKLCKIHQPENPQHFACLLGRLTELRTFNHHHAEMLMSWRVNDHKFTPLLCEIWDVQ
T1 sequence (P19793 1-462 partner): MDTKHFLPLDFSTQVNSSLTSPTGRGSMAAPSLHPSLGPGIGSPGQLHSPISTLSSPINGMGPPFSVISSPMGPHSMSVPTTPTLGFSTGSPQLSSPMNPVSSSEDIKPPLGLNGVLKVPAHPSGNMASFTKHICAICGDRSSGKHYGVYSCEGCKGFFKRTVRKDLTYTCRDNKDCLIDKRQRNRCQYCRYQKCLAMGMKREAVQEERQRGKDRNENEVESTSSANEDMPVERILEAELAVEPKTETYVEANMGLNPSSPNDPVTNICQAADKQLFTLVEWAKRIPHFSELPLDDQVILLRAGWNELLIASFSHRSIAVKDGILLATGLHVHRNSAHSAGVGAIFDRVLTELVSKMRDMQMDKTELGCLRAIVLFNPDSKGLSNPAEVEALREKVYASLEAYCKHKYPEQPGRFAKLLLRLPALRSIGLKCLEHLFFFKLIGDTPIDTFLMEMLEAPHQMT
The assay is described as follows: FXR activity screen, luciferase reporter in transfected CV-1 cells. The format is cell-based. An outline of the steps:
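CV-1 cells in charcoal-stripped serum, transfected with full-length human FXR, RXR, FXRE-luciferase reporter and β-Gal; 48 h expression, then 24 h compound (0.001–100 μM, quadruplicate, 1:1000 DMSO dilution). Luciferase normalized to β-galactosidase; fold induction vs untreated, efficacy relative to fexaramine, EC50 by non-linear regression.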
Background: In a reporter assay the amount or activity of a reporter protein is the signal.

In the next assay the test system is ob/ob mice. The assay is described as follows: fexaramine and deuterated analogs in ob/ob mice, 2 weeks. Type of assay: in vivo. As to conditions: 2 weeks at 50 mg/kg PO. The protocol: An in vivo study of fexaramine and selectively-deuterated fexaramine compounds (FIG. 29A) was performed. Briefly, ob/ob mice were treated daily with vehicle, Fex, or deuterated analogs (50 mg kg^−1) by oral (PO) gavage for 2 weeks. Subsequently, body weight, body temperature, fasting blood glucose and insulin levels, insulin secretion, and GLP1 section were measured, and glucose tolerance tests (GTTs) performed.

Assay [1] deals with FXR target gene expression in the liver. The assay is described as follows: liver gene expression by QPCR after 14 days oral FEX-D or SALK110. The format is in vivo, Mice. The conditions noted are these: 50 mg/kg PO 14 days. Here is the method:
Mice were treated daily with vehicle, FEX-D, or SALK110 (NSSK00110, 50 mg kg^−1) (see FIG. 29A) by oral (PO) gavage for 14 days, with tissues collected 1 hour after the final treatment. Gene expression changes in the liver were measured by QPCR.

pEC50: −log10 of the molar value. Like-named read-outs stand apart in the source and are kept apart here.

`C/C=C1\C(=O)C[C@H]2[C@@H]3CCC4=CC(=O)CC[C@]4(C)[C@H]3CC[C@]12C` [guggulsterone]: the “oxygen consumption rate (OCR)” value in the assay with human L cells is reported as “lower OCR”.
In general, pEC50 refers to the negative decadic logarithm of the EC50, by convention in mol/L. As to `[2H]C(c1ccc(-c2ccc(N(C)C)cc2)cc1)N(C(=O)C1CCCCC1)c1cccc(/C=C/C(=O)OC)c1` (stereo not shown) [NSSK00077, methyl (E)-3-(3-(N-((4′-(dimethylamino)-[1,1′-biphenyl]-4-yl)methyl-d)cyclohexanecarboxamido)phenyl)acrylate], the pEC50 at Human FXR full length (first round, CV-1 cells, 24 hours, read-out: 1st RND EC50) is 6.75; at Human FXR full length (retest, read-out: EC50 (retested)) it was 7.01; on Human FXR full length (second round, CV-1 cells, 24 hours, read-out: 2nd RND EC50), 6.82. The core body temperature entry with ob/ob mice was “more effective at increasing core body temperature than Fex”. Also, the “fasting blood glucose levels” value in the assay on ob/ob mice was “significantly reduced”. In assay [1], the “expression of FXR target genes SHP and BSEP in the liver” value is reported as “fail to alter”.
